ChEMBL document CHEMBL3352216, “Triterpene glycosides from red ginseng marc and their anti-inflammatory activities” (Bioorg Med Chem Lett, 2014)
≈ marks a conversion by molar mass, not a printed value.

What was measured:
[1] = tested on: RAW264.7; assay: Antiinflammatory activity in LPS-stimulated mouse RAW264.7 cells assessed as reduction in nitric oxide production at 120 uM after 24 hrs by Griess method based ELISA (reference value: 52.4 +/- 0.9 uM); format: functional
[2] = Cytotoxicity against LPS-stimulated mouse RAW264.7 cells assessed as cell viability at 80 uM after 24 hrs by MTT assay (reference value: 100%); format: cell-based; conditions: LPS-stimulated RAW264.7 cells, read-out: Activity
[3] = Cytotoxicity against LPS-stimulated mouse RAW264.7 cells assessed as cell viability at 40 uM after 24 hrs by MTT assay (reference value: 100%); format: cell-based; conditions: LPS-stimulated RAW264.7 cells, read-out: Activity
[4] = tested on: RAW264.7; assay: Antiinflammatory activity in LPS-stimulated mouse RAW264.7 cells assessed as reduction in nitric oxide production after 24 hrs by Griess method based ELISA; format: functional, cell-based; conditions: RAW264.7, 24 h
[5] = Cytotoxicity against LPS-stimulated mouse RAW264.7 cells assessed as cell viability at 120 uM after 24 hrs by MTT assay (reference value: 100%); format: cell-based; conditions: LPS-stimulated RAW264.7 cells, read-out: Activity
[6] = tested on: RAW264.7; assay: Antiinflammatory activity in LPS-stimulated mouse RAW264.7 cells assessed as reduction in nitric oxide production at 80 uM after 24 hrs by Griess method based ELISA (reference value: 52.4 +/- 0.9 uM); format: functional
[7] = tested on: RAW264.7; assay: Antiinflammatory activity in LPS-stimulated mouse RAW264.7 cells assessed as reduction in nitric oxide production at 40 uM after 24 hrs by Griess method based ELISA (reference value: 52.4 +/- 0.9 uM); format: functional
[8] = Cytotoxicity against LPS-stimulated mouse RAW264.7 cells assessed as cell viability at 3 uM after 24 hrs by MTT assay (reference value: 100%); format: cell-based; conditions: LPS-stimulated RAW264.7 cells, read-out: Activity
[9] = Cytotoxicity against LPS-stimulated mouse RAW264.7 cells assessed as cell viability at 1.5 uM after 24 hrs by MTT assay (reference value: 100%); format: cell-based; conditions: LPS-stimulated RAW264.7 cells, read-out: Activity
[10] = tested on: RAW264.7; assay: Antiinflammatory activity in LPS-stimulated mouse RAW264.7 cells assessed as reduction in nitric oxide production at 1.5 uM after 24 hrs by Griess method based ELISA (reference value: 52.4 +/- 0.9 uM); format: functional
[11] = tested on: RAW264.7; assay: Antiinflammatory activity in LPS-stimulated mouse RAW264.7 cells assessed as reduction in nitric oxide production at 3 uM after 24 hrs by Griess method based ELISA (reference value: 52.4 +/- 0.9 uM); format: functional

Row | Structure (SMILES) | Activity [1] [µM] | viability at 24 h, 80 µM [2] [%] | viability at 24 h, 40 µM [3] [%] | IC50 [4] [µg/mL] | viability at 24 h, 120 µM [5] [%] | Activity [6] [µM] | Activity [7] [µM] | viability at 24 h, 3 µM [8] [%] | viability at 24 h, 1.5 µM [9] [%] | Activity [10] [µM] | Activity [11] [µM]
1 | C[C@@H]1C[C@@H](O)[C@]2(C)CC[C@]3(C)[C@H](CC[C@@H]4[C@@]5(C)CC[C@H](O[C@@H]6O[C@H](CO)[C@@H](O)[C@H](O)[C@H]6O[C@@H]6O[C@H](CO)[C@@H](O)[C@H](O)[C@H]6O)C(C)(C)[C@@H]5CC[C@]43C)[C@@H]2[C@]1(C)O | 30.8 | 91.7 | 90.3 | 127 (≈ 161 µM) | 73.9 | 40.4 | 54.5 |  |  |  | 
2 | O=c1c(O)c(-c2ccc(O)c(O)c2)oc2cc(O)cc(O)c12 [QUERCETIN] |  |  |  | 2.9 (≈ 9.6 µM) |  |  |  | 104 | 104 | 20.8 | 13.5
